Biological target: P. falciparum apicoplast DNA polymerase (Pf-apPOL) (Plasmodium falciparum, UniProt Q8ILY1)
Assay: Fluorescence-based high-throughput DNA polymerase assay (molecular beacon), primary screen and dose-response;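 as to % inhibition ApPOL 90': test concentration in µM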;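 as to % inhibition Apol 40': compound concentration given in µM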;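 as to % inhibition apPOL 180': test concentration in µM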
Type: biochemical
Conditions: for DNA Pol: 90 min, 10 µM
In short: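 Single-point screening used 10 µM compound with 20 nM polymerase, 20 nM hairpin substrate and 6 µM dNTPs for 90 min at 25 °C. Confirmatory titrations (2.5–80 µM) followed fluorescence at three times, and IC50 was derived from a fit including a cooperativity term n.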

Sequence of P. falciparum apicoplast DNA polymerase (Pf-apPOL) (Q8ILY1 entry or part of it): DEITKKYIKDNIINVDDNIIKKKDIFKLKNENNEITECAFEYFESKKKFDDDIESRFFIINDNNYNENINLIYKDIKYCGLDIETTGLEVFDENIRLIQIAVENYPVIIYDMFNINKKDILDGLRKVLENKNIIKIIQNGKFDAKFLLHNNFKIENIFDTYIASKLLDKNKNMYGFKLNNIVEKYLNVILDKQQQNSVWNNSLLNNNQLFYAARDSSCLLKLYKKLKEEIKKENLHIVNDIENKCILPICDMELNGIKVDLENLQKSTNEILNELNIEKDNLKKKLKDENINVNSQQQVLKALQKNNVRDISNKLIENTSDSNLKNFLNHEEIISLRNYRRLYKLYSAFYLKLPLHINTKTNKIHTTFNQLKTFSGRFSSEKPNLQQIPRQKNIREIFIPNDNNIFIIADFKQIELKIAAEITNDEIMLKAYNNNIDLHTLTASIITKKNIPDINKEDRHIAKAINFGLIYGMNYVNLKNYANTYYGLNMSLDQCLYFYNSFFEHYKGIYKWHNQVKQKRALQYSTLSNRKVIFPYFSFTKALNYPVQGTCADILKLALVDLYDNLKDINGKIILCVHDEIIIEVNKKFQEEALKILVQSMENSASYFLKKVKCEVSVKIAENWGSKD

O=C(Nc1ccc2c(c1)Cc1cc(NC(=O)c3ccco3)ccc1-2)c1ccco1 [KU0038977]
DNA Pol ("DNA Pol" of the 186 hits list (screen value)): 27
% inhibition Apo pol 10' (DRC-1, concentration 2.5): -0.5837%
% inhibition Apo pol 10' (DRC-1, concentration 5): 5.785%
% inhibition Apo pol 10' (DRC-1, concentration 10): 28.4085%
% inhibition Apo pol 10' (DRC-1, concentration 20): 37.8617%
% inhibition Apo pol 10' (DRC-1, concentration 40): 75.7214%
% inhibition Apo pol 10' (DRC-1, concentration 80): 91.1334%
% inhibition Apol 90' (DRC-1, concentration 2.5): -0.5506%
% inhibition Apol 90' (DRC-1, concentration 5): 1.199%
% inhibition Apol 90' (DRC-1, concentration 10): 17.4686%
% inhibition Apol 90' (DRC-1, concentration 20): 25.9%
% inhibition Apol 90' (DRC-1, concentration 40): 60.9972%
% inhibition Apol 90' (DRC-1, concentration 80): 80.3159%
% inhibition apPOL 180' (DRC-1, concentration 2.5): -0.3262%
% inhibition apPOL 180' (DRC-1, concentration 5): 0.08289%
% inhibition apPOL 180' (DRC-1, concentration 10): 10.649%
% inhibition apPOL 180' (DRC-1, concentration 20): 16.9681%
% inhibition apPOL 180' (DRC-1, concentration 40): 47.3942%
% inhibition apPOL 180' (DRC-1, concentration 80): 72.1517%
% inhibition Apo pol 5' (DRC-2, concentration 2.5): 21%
% inhibition Apo pol 5' (DRC-2, concentration 5): 10%
% inhibition Apo pol 5' (DRC-2, concentration 10): 35%
% inhibition Apo pol 5' (DRC-2, concentration 20): 42%
% inhibition Apo pol 5' (DRC-2, concentration 40): 53%
% inhibition Apo pol 5' (DRC-2, concentration 80): 27%
% inhibition Apol 40' (DRC-2, concentration 2.5): 30%
% inhibition Apol 40' (DRC-2, concentration 5): 10%
% inhibition Apol 40' (DRC-2, concentration 10): 40%
% inhibition Apol 40' (DRC-2, concentration 20): 52%
% inhibition Apol 40' (DRC-2, concentration 40): 69%
% inhibition Apol 40' (DRC-2, concentration 80): 58%
% inhibition ApPOL 90' (DRC-2, concentration 2.5): 29%
% inhibition ApPOL 90' (DRC-2, concentration 5): 6.46%
% inhibition ApPOL 90' (DRC-2, concentration 10): 35%
% inhibition ApPOL 90' (DRC-2, concentration 20): 50%
% inhibition ApPOL 90' (DRC-2, concentration 40): 71%
% inhibition ApPOL 90' (DRC-2, concentration 80): 65%
% inhibition apPOL 180' (DRC-2, concentration 2.5): 20%
% inhibition apPOL 180' (DRC-2, concentration 5): -3.38%
% inhibition apPOL 180' (DRC-2, concentration 10): 23%
% inhibition apPOL 180' (DRC-2, concentration 20): 40%
% inhibition apPOL 180' (DRC-2, concentration 40): 68%
% inhibition apPOL 180' (DRC-2, concentration 80): 69%
DNA Pol (primary screen value, DNA Pol): 27

Cc1ccc(-n2nnc(C(=O)O)c2-c2ccccn2)c(F)c1 [Molecule 54, Cc1ccc(c(c1)F)n1nnc(c1c1ccccn1)C(=O)O]
DNA Pol ('DNA Pol' of the 186 hits list (primary screen value)): 25
DNA Pol (DNA Pol (primary screen value)): 25
% inhibition Apo pol 10' (DRC-1, concentration 2.5): 7.865%
% inhibition Apo pol 10' (DRC-1, concentration 5): 13.3823%
% inhibition Apo pol 10' (DRC-1, concentration 10): 36.76%
% inhibition Apo pol 10' (DRC-1, concentration 20): 54.7705%
% inhibition Apo pol 10' (DRC-1, concentration 40): 63.8546%
% inhibition Apo pol 10' (DRC-1, concentration 80): 49.8653%
% inhibition Apol 90' (DRC-1, concentration 2.5): 0.06529%
% inhibition Apol 90' (DRC-1, concentration 5): 1.171%
% inhibition Apol 90' (DRC-1, concentration 10): 17.5602%
% inhibition Apol 90' (DRC-1, concentration 20): 37.4412%
% inhibition Apol 90' (DRC-1, concentration 40): 61.51%
% inhibition Apol 90' (DRC-1, concentration 80): 66.8702%
% inhibition apPOL 180' (DRC-1, concentration 2.5): -5.444%
% inhibition apPOL 180' (DRC-1, concentration 5): -7.146%
% inhibition apPOL 180' (DRC-1, concentration 10): 5.348%
% inhibition apPOL 180' (DRC-1, concentration 20): 21.3721%
% inhibition apPOL 180' (DRC-1, concentration 40): 53.298%
% inhibition apPOL 180' (DRC-1, concentration 80): 71.3072%
% inhibition Apo pol 5' (DRC-2, concentration 2.5): 5%
% inhibition Apo pol 5' (DRC-2, concentration 5): 15%
% inhibition Apo pol 5' (DRC-2, concentration 10): 31%
% inhibition Apo pol 5' (DRC-2, concentration 20): 33%
% inhibition Apo pol 5' (DRC-2, concentration 40): 21%
% inhibition Apo pol 5' (DRC-2, concentration 80): -14%
% inhibition Apol 40' (DRC-2, concentration 2.5): 5.55%
% inhibition Apol 40' (DRC-2, concentration 5): 10%
% inhibition Apol 40' (DRC-2, concentration 10): 27%
% inhibition Apol 40' (DRC-2, concentration 20): 42%
% inhibition Apol 40' (DRC-2, concentration 40): 48%
% inhibition Apol 40' (DRC-2, concentration 80): 33%
% inhibition ApPOL 90' (DRC-2, concentration 2.5): 3.47%
% inhibition ApPOL 90' (DRC-2, concentration 5): 6%
% inhibition ApPOL 90' (DRC-2, concentration 10): 22%
% inhibition ApPOL 90' (DRC-2, concentration 20): 39%
% inhibition ApPOL 90' (DRC-2, concentration 40): 52%
% inhibition ApPOL 90' (DRC-2, concentration 80): 45%
% inhibition apPOL 180' (DRC-2, concentration 2.5): 0.3%
% inhibition apPOL 180' (DRC-2, concentration 5): -1.15%
% inhibition apPOL 180' (DRC-2, concentration 10): 13%
% inhibition apPOL 180' (DRC-2, concentration 20): 28%
% inhibition apPOL 180' (DRC-2, concentration 40): 51%
% inhibition apPOL 180' (DRC-2, concentration 80): 55%

From paper PMC9090415, “Discovery of small molecule inhibitors of Plasmodium falciparum apicoplast DNA polymerase” (Journal of Enzyme Inhibition and Medicinal Chemistry, 2022)
